The record followed here is ChEMBL document CHEMBL6103629 (J Med Chem, 2025).

The structures appear in SMILES notation.

The term IC50 denotes the concentration that gives 50% inhibition.

The subject of experiment [1] is NCI-H1703. Kind of experiment: Antitumor activity against human NCI-H1703 cells xenografted in female Balb/c nude mouse assessed as tumor growth inhibition at 50 mg/kg […] administered as 3 days on and 4 days off schedule for 4 weeks relative to control. In kind it is functional. The following applies: NCI-H1703, 672 h, time 28 day, read-out: TGI. A general note: In xenograft studies the graft and the host belong to different species.

For experiment [2], the target named is Serine/threonine-protein kinase ATR (Homo sapiens, UniProt Q13535). Briefly: Inhibition of ATR (unknown origin) assessed as reduction in p53 phosphorylation level incubated for 30 mins by TR-FRET assay. Background: Time-resolved FRET reads energy transfer from a long-lived donor to a nearby acceptor.
Chain of Serine/threonine-protein kinase ATR (Q13535 whole entry): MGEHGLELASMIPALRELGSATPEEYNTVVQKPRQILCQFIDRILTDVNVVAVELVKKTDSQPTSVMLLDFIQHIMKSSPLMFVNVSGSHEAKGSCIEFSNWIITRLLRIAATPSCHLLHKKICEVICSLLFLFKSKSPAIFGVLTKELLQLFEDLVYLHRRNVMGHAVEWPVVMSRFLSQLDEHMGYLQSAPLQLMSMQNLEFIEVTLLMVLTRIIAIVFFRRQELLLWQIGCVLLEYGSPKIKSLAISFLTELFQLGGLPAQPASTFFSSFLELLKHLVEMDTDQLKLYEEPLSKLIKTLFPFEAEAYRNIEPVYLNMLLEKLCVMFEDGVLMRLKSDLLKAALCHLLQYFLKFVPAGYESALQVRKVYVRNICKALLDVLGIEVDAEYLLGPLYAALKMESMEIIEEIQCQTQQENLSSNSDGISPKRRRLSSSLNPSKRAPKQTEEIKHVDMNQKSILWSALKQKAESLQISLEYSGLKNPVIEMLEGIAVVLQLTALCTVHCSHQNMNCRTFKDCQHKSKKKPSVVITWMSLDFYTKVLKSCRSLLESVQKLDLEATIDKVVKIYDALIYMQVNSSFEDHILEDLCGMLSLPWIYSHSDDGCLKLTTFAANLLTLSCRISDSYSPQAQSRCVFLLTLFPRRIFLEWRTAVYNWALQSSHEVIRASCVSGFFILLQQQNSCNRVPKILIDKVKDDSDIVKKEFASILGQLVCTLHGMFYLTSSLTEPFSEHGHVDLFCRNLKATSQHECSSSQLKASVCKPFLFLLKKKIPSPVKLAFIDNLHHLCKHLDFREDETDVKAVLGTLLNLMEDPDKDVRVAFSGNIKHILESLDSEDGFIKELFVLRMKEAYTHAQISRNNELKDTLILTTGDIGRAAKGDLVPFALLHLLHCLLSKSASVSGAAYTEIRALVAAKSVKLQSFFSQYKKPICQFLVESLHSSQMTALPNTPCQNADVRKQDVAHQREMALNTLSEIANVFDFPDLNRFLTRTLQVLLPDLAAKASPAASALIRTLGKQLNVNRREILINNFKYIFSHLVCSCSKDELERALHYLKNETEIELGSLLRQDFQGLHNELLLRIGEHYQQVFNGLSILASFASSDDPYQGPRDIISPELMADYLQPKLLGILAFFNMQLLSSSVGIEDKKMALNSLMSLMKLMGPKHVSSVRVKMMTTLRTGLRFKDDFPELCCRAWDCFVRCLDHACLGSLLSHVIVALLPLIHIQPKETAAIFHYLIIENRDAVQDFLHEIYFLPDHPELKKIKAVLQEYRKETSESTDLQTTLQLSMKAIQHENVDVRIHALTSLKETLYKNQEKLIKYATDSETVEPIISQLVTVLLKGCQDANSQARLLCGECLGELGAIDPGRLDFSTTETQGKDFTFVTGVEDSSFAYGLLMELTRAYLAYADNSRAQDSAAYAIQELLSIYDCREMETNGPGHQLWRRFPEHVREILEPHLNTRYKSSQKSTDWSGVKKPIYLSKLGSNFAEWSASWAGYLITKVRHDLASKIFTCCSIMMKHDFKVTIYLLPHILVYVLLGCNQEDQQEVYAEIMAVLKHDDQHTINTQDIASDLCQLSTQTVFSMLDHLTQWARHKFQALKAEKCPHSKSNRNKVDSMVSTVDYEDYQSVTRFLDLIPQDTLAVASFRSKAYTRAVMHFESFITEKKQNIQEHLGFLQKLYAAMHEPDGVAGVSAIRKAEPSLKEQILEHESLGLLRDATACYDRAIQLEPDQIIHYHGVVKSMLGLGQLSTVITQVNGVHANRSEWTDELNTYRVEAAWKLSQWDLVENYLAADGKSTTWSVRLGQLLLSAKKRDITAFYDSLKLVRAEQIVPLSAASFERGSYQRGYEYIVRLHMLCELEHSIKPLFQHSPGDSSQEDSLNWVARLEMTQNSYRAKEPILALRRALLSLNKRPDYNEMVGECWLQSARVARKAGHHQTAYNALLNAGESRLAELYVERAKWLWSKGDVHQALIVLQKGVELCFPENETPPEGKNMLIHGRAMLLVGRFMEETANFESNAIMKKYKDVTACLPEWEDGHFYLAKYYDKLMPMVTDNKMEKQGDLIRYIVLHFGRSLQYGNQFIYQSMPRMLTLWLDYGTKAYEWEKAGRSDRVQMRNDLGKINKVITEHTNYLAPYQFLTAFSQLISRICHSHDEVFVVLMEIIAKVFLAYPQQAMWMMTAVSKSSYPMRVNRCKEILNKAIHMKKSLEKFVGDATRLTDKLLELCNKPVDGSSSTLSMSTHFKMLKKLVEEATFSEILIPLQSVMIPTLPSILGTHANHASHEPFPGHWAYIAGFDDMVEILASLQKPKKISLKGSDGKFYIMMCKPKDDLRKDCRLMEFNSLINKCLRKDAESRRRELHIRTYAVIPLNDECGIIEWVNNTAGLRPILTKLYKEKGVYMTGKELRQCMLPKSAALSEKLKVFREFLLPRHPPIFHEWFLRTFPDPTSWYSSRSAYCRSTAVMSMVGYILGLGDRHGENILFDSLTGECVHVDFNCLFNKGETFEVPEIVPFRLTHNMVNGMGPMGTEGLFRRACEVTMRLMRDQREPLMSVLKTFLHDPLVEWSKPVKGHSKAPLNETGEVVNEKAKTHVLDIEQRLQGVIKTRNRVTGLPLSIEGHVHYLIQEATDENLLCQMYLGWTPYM
A further experiment has as its system NCI-H146. Briefly: Antiproliferative activity against human NCI-H146 cells. In kind it is functional, cell-based.
The subject of a further experiment is CWR22R. Kind of experiment: Antiproliferative activity against human 22Rv1 cells incubated for 120 hrs by Cell-titer Glo luminescent assay. The following applies: 22Rv1, 120 h.
For experiment [3], the system named is LoVo. Briefly: Induction of apoptosis in human LoVo cells assessed as viable cells at 3 uM incubated for 24 hrs by Annexin-V-FITC-PI staining based flow cytometric analysis (reference value: 72.1 %). It counts as functional. The following applies: read-out: Activity.
Experiment [4] relates to LoVo. Briefly: Induction of apoptosis in human LoVo cells assessed as early apoptotic cells at 3 uM incubated for 24 hrs by Annexin-V-FITC-PI staining based flow cytometric analysis (reference value: 13.7 %). In kind it is functional. (In general: A flow cytometer gives signals particle by particle.)
In experiment [5] the test system is LoVo. Briefly: Induction of apoptosis in human LoVo cells assessed as late apoptotic cells at 3 uM incubated for 24 hrs by Annexin-V-FITC-PI staining based flow cytometric analysis (reference value: 13.2 %). In kind it is functional.
Experiment [6] concerns LoVo. Kind of experiment: Induction of apoptosis in human LoVo cells assessed as necrotic cells at 3 uM incubated for 24 hrs by Annexin-V-FITC-PI staining based flow cytometric analysis (reference value: 0.97 %). It counts as functional.
The next experiment relates to JeKo-1. Kind of experiment: Antitumor activity against human JeKo-1 cells xenografted in female CB17 SCID mouse assessed as tumor growth inhibition at 50 mg/kg BID, po measured every 2 days for 24 days relative to control. In kind it is functional. The conditions noted are these: JeKo-1, 576 h, time 24 day, read-out: TGI.
For experiment [7], the system named is LoVo. Briefly: Antitumor activity against human LoVo cells xenografted in female Balb/c nude mouse assessed as tumor growth inhibition at 50 mg/kg QD, po measured every 3 days for 25 days relative to control. The following applies: 600 h, time 25 day, read-out: TGI. In kind it is functional.
In experiment [8] the test system is NCI-H1703. Briefly: Antitumor activity against human NCI-H1703 cells xenografted in female Balb/c nude mouse assessed as tumor growth inhibition at 50 mg/kg QD, po measured every 3 days for 28 days by vernier caliper based analysis relative to control. In kind it is functional. The following applies: NCI-H1703, 672 h, time 28 day, read-out: TGI.

As to `Nc1ccn([C@@H]2O[C@H](CO)[C@@H](O)C2(F)F)c(=O)n1` [GEMCITABINE], the inhibition in vivo at 50 mg/kg with NCI-H1703 [1] came to 76.7%.
Consider `Cn1cncc1-c1c(F)cncc1NC(=O)c1c(N)nn2cc(F)cnc12` [TUVUSERTIB], for which the IC50 in [2] is below 1 µM; in the experiment on NCI-H146, 0.73 µM.
As for `C[C@@H]1COCCN1c1cc(C2([S@](C)(=N)=O)CC2)nc(-c2cc[nH]c3nccc2-3)n1` [CERALASERTIB], it took 0.92 µM to reach half-maximal inhibition in the experiment on CWR22R (IC50). Also, the viability at 3 µM in the experiment with LoVo [3] worked out at 54.7%. For the same compound, the Activity with LoVo [4] came to 19.3%; in the experiment with LoVo [5], 24%; in the experiment with LoVo [6], 1.93%. In addition, the results for the inhibition in vivo at 50 mg/kg in the experiment on JeKo-1, in the experiment with LoVo [7] and with NCI-H1703 [8] were 90.6%, 57% and 34%, respectively.
